Experimental data from PubChem BioAssay (NCI).
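1) Cells in 96-well plates. 2) Compound, 48 h, 5 concentrations. 3) Linear interpolation between surrounding doses. 4) Unreached endpoint = highest concentration. At the TGI there is no net growth.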

Columns and labels:
Assay in all cases: growth of human tumour cells (NCI), 48 h
[1] = tested on: RPMI-8226 leukemia
[2] = tested on: HOP-62 NSCLC
[3] = tested on: SK-OV-3 ovarian
[4] = tested on: HT29 colon
[5] = tested on: KM12 colon
[6] = tested on: XF 498 CNS
[7] = tested on: U251 CNS
[8] = tested on: SK-MEL-28 melanoma
[9] = tested on: SK-MEL-5 melanoma
[10] = tested on: UO-31 renal
[11] = tested on: SF-539 CNS
[12] = tested on: KM20L2 colon
[13] = tested on: M19-MEL melanoma
[14] = tested on: DLD-1 colon
[15] = tested on: 786-0 renal
[16] = tested on: NCI-H522 lung
[17] = tested on: OVCAR-8 ovarian
[18] = tested on: CAKI-1 renal
[19] = tested on: UACC-257 melanoma
[20] = tested on: HOP-92 NSCLC
[21] = tested on: HCT-116 colon
[22] = tested on: UACC-62 melanoma
[23] = tested on: IGROV1 ovarian
[24] = tested on: RXF 393 renal
[25] = tested on: ACHN renal
[26] = tested on: SR leukemia
[27] = tested on: HOP-18 NSCLC
[28] = tested on: EKVX NSCLC
[29] = tested on: SNB-78 CNS
[30] = tested on: OVCAR-3 ovarian
[31] = tested on: COLO 205 colon
[32] = tested on: A498 renal
[33] = tested on: SNB-19 CNS
[34] = tested on: NCI-H460 lung
[35] = tested on: SNB-75 CNS
[36] = tested on: DMS 114 small cell lung
[37] = tested on: LXFL 529 NSCLC
[38] = tested on: TK-10 renal
[39] = tested on: OVCAR-4 ovarian
[40] = tested on: NCI-H226 lung
[41] = tested on: MOLT-4 leukemia
[42] = tested on: SF-268 CNS
[43] = tested on: SK-MEL-2 melanoma
[44] = tested on: SN12C renal
[45] = tested on: A549 NSCLC
[46] = tested on: LOX IMVI melanoma
[47] = tested on: OVCAR-5 ovarian
[48] = tested on: MALME-3M melanoma
[49] = tested on: NCI-H23 lung
[50] = tested on: M14 melanoma
[51] = tested on: DMS 273 small cell lung
[52] = tested on: SF-295 CNS
[53] = tested on: SW-620 colon

`CC(=O)OC1C2CCC1C1C2C2(Cl)C(Cl)=C(Cl)C1(Cl)C2(Cl)Cl` (stereo not drawn) gave a TGI [1] of 27.4 µM, a TGI [2] of 29 µM and a TGI [3] of 35.3 µM. For the same compound, the TGI [4] was 28 µM, the TGI [5] was 27.6 µM and the TGI [6] was 23.1 µM. It also gave a TGI [7] of 26.2 µM, a TGI [8] of 34.3 µM and a TGI [9] of 26 µM. It also gave a TGI [10] of 25.2 µM, a TGI [11] of 30.7 µM and a TGI [12] of 22.9 µM. It also gave a TGI [13] of 27.7 µM, a TGI [14] of 33.3 µM and a TGI [15] of 27.1 µM. The TGI [16] was 25 µM, the TGI [17] was 29.6 µM and the TGI [18] was 27 µM. The TGI [19] was 27.4 µM, the TGI [20] was 23.3 µM and the TGI [21] was 27.8 µM. It also gave a TGI [22] of 27 µM, a TGI [23] of 36 µM and a TGI [24] of 29.3 µM. It also gave a TGI [25] of 25.9 µM, a TGI [26] of 24.6 µM and a TGI [27] of 33.8 µM. For the same compound, the TGI [28] was 24.1 µM, the TGI [29] was 34.8 µM and the TGI [30] was 24 µM. It also gave a TGI [31] of 28.3 µM, a TGI [32] of 27 µM and a TGI [33] of 28.6 µM. For the same compound, the TGI [34] was 27.4 µM, the TGI [35] was 29.8 µM and the TGI [36] was 26.7 µM. It also gave a TGI [37] of 33.9 µM, a TGI [38] of 28.8 µM and a TGI [39] of 59.8 µM. It also gave a TGI [40] of 26.7 µM, a TGI [41] of 26.4 µM and a TGI [42] of 32.6 µM. It also gave a TGI [43] of 22.2 µM, a TGI [44] of 28.4 µM and a TGI [45] of 25.9 µM. It also gave a TGI [46] of 29.1 µM, a TGI [47] of 23.1 µM and a TGI [48] of 27.1 µM. It also gave a TGI [49] of 25.8 µM, a TGI [50] of 25.3 µM and a TGI [51] of 25.4 µM. For the same compound, the TGI [52] was 23.7 µM and the TGI [53] was 28.4 µM.
